From US10400008B2, “Modulators of the SRC-kinase activity for preventing or treating metastatic cancer” (Cancer Research Technology Limited, priority 2013, dated 2019)
Where “and” joins values, the source holds several entries; their conditions need not be identical. Equal values may be shown once. Entries after “also recorded” stand apart in the source; their conditions may differ.

What was measured:
[1] = test system: PC-3 cells; assay: Orthotopic PC-3 prostate cancer model: tumor volume and lymph node metastases; type: in vivo, BALB/c nude mice; details: for incidence of lymph node metastasis: vs vehicle; for Total tumor volumes during the study: animals 2.x (0.04 mg/kg by heads of Tables 2-3)
Experimental: Six week-old immunodeficient BALB/c nude mice were allocated to six 15-mice groups according to the body weight. PC-3 cells were inoculated orthotopically into prostates of the mice. Dosing (s.c.) was started at study day 1 and continued daily for 28 days.
(§1) Mice were weighed twice a week, and after 4 weeks, mice were sacrificed. Gross necropsy was performed to all animals at the end of the study, and all macroscopic signs were recorded. Volume of the prostate tumors was measured and prostate as well as prostate draining lymph nodes were collected for histology. The number of metastasis in lymph nodes was determined under microscope.
The 0.01 mg/ml, 0.1 mg/ml, 1 mg/ml, 2.5 mg/ml and 5 mg/ml dosing suspensions were prepared from test peptide VAL001 by dilution to PBS. […] New dosing suspensions were prepared every week.
An animal model was used that can be effectively used for testing the effects of cancer drug candidates on the primary tumor growth in prostate microenvironment. In this model, human prostate cancer cells are inoculated into prostate of 4-5 week old male BALB/c nude mice. This mouse strain is immunodeficient, allowing rapid growth and spread of the human cancer cells. Within four weeks after the inoculation, animal develop large tumor to prostate and metastases to regional iliac and sacral lymph nodes. The animals are sacrificed at 4 weeks after inoculation, and their prostate with tumor and regional lymph nodes are collected for further histomorphometric analysis.
Male BALB/c nude mice (BALB/c OlaHsd-Foxn1^nu, obtained from Harlan, The Netherlands) were used for this study. The age of the animals was 6-7 weeks, and their body weights were approximately 16-23 g at the beginning of the study. The mice were specific pathogen free (SPF) and isolator-reared animals. Correct age and good clinical health were qualifications for the study. The acclimatization period for the mice was 4 days. Allocation to groups was performed by randomization procedure based on body weight. The animals were marked with ear marks. For orthotopic inoculations the mice were anesthetized with inhalation of isoflurane. Analgesia was provided before and 2 days after the orthotopic inoculation with buprenorphine: 0.1 mg/kg, s.c.
(§2) At the end of the study, the animals were weighed and sacrificed with cervical dislocation under anesthesia. Necropsy was carried out in all animals. Macroscopic findings were recorded on the follow-up forms. Tissue samples from prostate with tumor and lymph nodes were collected for histology and number of metastases in lymph nodes was determined.
(§3) Statistical analysis was performed with R: A Language and Environment for Statistical Computing (version 2.14.2; R Development Core Team, Vienna, Austria). The mean and standard deviation of the body weights and the tumor volumes at sacrifice were determined. Normality of the distributions and homogeneity of variance were checked before further analyses. In case of violating these assumptions, either log transformation or other appropriate transformation (e.g. square root, reciprocal) was applied. If the assumptions were fulfilled as such or after transformation, one-way ANOVA was used to study if the values obtained between the groups were statistically different (with p<0.05). If differences were found, Tukey's HSD test was used for pairwise comparison between all groups. If the assumptions were not fulfilled even after the transformations described above, the non-parametric Kruskal-Wallis test followed by Mann-Whitney U-test were used.
The statistical analysis of incidence of lymph node metastases was done using Fisher's exact test as one-sided test in which the null hypothesis reflected the assumption that the treatment […].

[2] = Body weight in the orthotopic PC-3 prostate cancer model
Experimental: as §1
The animals were weighed twice a week. For the last 5 days of the study, the animals were observed daily to monitor the progression of disease. Appearance of any clinical signs was recorded on follow-up forms. Analgesic was given if needed.
as §2, §3
We have studied the effects of Val201 on cell proliferation of the ER positive human prostate cancer cell line PC-3 in vitro and growth and metastatis in vivo in an orthotopic xenograft model. The proliferation effects were studied for 100 pM, 1 nM, 10 nM, 100 nM and 1 μM concentrations of VAL201 by measuring WST-1 values at days 3, 5, 7 and 9. Groups with vehicle and 1 μM gemcitabine as reference compound were included in the study. […] PC-3 cells in Matrigel were inoculated orthotopically into the prostate. Subcutaneous dosing was started at day 1 and continued daily for 28 days. The mice were weighed twice a week. Orthotopic tumors were measured by calliper and the prostate and the regional lymph nodes were harvested at sacrifice. Metastases in lymph nodes were determined from HE stained paraffin sections.

[3] = test system: PC-3 cells; assay: PC-3 cell proliferation, WST-1; type: cell-based, human; details: 100 pM-1 μM, WST-1 at days 3, 5, 7, 9; statistically significant with all doses above 100 pM
Experimental: We have studied the effects of Val201 on cell proliferation of the ER positive human prostate cancer cell line PC-3 in vitro and growth and metastatis in vivo in an orthotopic xenograft model. The proliferation effects were studied for 100 pM, 1 nM, 10 nM, 100 nM and 1 μM concentrations of VAL201 by measuring WST-1 values at days 3, 5, 7 and 9. Groups with vehicle and 1 μM gemcitabine as reference compound were included in the study. The xenograft study was performed with 6-7 week-old immunodeficient BALB/c nude mice that were allocated to 6 groups (with n=15/group) according to the body weight, one group receiving vehicle and the others VAL201 at doses 0.04, 0.4, 4, 10 and 20 mg/kg. PC-3 cells in Matrigel were inoculated orthotopically into the prostate. Subcutaneous dosing was started at day 1 and continued daily for 28 days. The mice were weighed twice a week. Orthotopic tumors were measured by calliper and the prostate and the regional lymph nodes were harvested at sacrifice. Metastases in lymph nodes were determined from HE stained paraffin sections.

[4] = test system: endometriosis lesion; assay: In-vivo model of endometriosis (K-ras transgenic donor tissue in wild-type animals), first study; set-up: species or system mice; details: injected for 21 days, four treated animals
Experimental: In a first study, a total of 4 treatment and 5 control animals were generated in a novel in-vivo model of endometriosis (Research Horizons, University of Cambridge, 2009 Issue 8, GB 0715635.9) K-rasV12/Ah-Cre transgenic mice were crossed with Rosa26R mice to generate KrasV12+/−/Ah-Cre+/−/ROSA26R-LacZ+/− transgenic mice. The F1 offspring were inbred to generate F2 K-rasV12+/−/Ah-Cre+/+/ROSA26R-LacZ+/+ transgenic mice. The presence of the transgenes was determined by PCR using gene specific primers for K-ras, Cre and Rosa26R-LacZ. Tissue was collected from donor animals previously treated with hormones etc. and was divided between wild-type animals that were then injected with drug or vehicle for 21 days.

[5] = test system: offspring from dosed females; details: mouse, in vivo
Description: Offspring from dosed females were mated and checked for fertility to determine possible inheritable effects.

Ac-PPPHPHARIK-NH2 [VAL001]
inhibition of the development of lymph node metastases ([1]; 0.04 mg/kg s.c. daily 28 days): 50% | incidence of lymph node metastasis ([1]; 0.04 mg/kg s.c. daily 28 days, Fisher's exact test p=0.01643): statistically significantly less; also recorded: inhibited statistically significantly | inhibition of the development of lymph node metastases ([1]; 0.4 mg/kg s.c. daily 28 days): 50% | incidence of lymph node metastasis ([1]; 0.4 mg/kg s.c. daily 28 days, Fisher's exact test p=0.03913): statistically significantly less; also recorded: inhibited statistically significantly | decrease in tumor volume ([1]; 0.4 mg/kg s.c. daily 28 days, not statistically significant): 35% | statistically significant effects on orthotopic tumor growth ([1]; 0.04-20 mg/kg s.c. daily 28 days): not observed | tumor volumes between the treatment groups ([1]; 0.04-20 mg/kg s.c. daily 28 days, at sacrifice): no statistically significant differences | Total tumor volumes during the study ([1]; day 5, single animals): 22.3 and 11.5 and 21.5 and 16.9 and 26.7 and 29.3 (2×) and 27.8 | Total tumor volumes during the study ([1]; day 7, single animals, in mm³ (unit assumed)): 21.1 and 7.8 and 17.8 and 22.0 and 16.9 and 18.3 and 31.2 and 29.6 | Total tumor volumes during the study ([1]; day 9, single animals, in mm³ (unit assumed)): 28.2 and 18.2 and 32.4 and 21.3 and 29.6 and 57.8 and 76.4 and 34.4 | Total tumor volumes during the study ([1]; day 12, single animals, in mm³ (unit assumed)): 51.3 and 20.1 and 39.6 and 56.1 and 24.6 and 57.0 and 116.3 and 70.3 | Total tumor volumes during the study ([1]; day 14, single animals, in mm³ (unit assumed)): 71.8 and 55.8 and 72.5 and 65.8 and 54.7 and 114.0 and 176.1 and 106.7 | Total tumor volumes during the study ([1]; day 16, single animals, in mm³ (unit assumed)): 87.7 and 70.9 and 140.3 and 85.4 and 62.6 and 167.3 and 183.2 and 112.1 | Total tumor volumes during the study ([1]; day 19, single animals, in mm³ (unit assumed)): 202.0 and 163.3 and 186.2 and 140.9 and 104.4 and 181.7 and 332.0 and 227.3 | Total tumor volumes during the study ([1]; day 21, single animals, in mm³ (unit assumed)): 182.3 and 152.1 and 196.2 and 139.5 and 120.6 and 278.5 and 365.1 and 240.1 | Total tumor volumes during the study ([1]; day 23, single animals, in mm³ (unit assumed)): 158.4 and 95.0 and 289.5 and 181.8 and 127.8 and 278.8 and 386.3 and 323.8 and 345.6 | Total tumor volumes during the study ([1]; day 26, single animals, in mm³ (unit assumed)): 277.2 and 233.9 and 254.0 and 243.7 and 239.4 and 381.2 and 618.5 and 328.7 and 518.9 | Total tumor volumes during the study ([1]; day 29, single animals, in mm³ (unit assumed)): 382.9 and 204.8 and 258.0 and 216.8 and 245.1 and 418.0 and 750.0 and 430.6 and 288.0 | Body weight at sacrifice relative to maximum weight ([2]; 0.004 mg/kg, mean): 96.6 | Body weight at sacrifice relative to maximum weight ([2]; 0.004 mg/kg, single animals): 95.1 (2×) and 100.0 and 93.8 and 95.7 and 97.9 and 94.1 and 97.8 and 97.6 and 99.2 | Body weight at sacrifice relative to maximum weight ([2]; 0.04 mg/kg, mean): 96.1 | Body weight at sacrifice relative to maximum weight ([2]; 0.04 mg/kg, single animals): 100.0 and 96.1 and 94.9 and 96.7 and 93.8 and 93.0 and 94.8 and 98.0 (2×) and 96.2 | Body weight at sacrifice relative to maximum weight ([2]; 0.4 mg/kg, mean): 97.6 | Body weight at sacrifice relative to maximum weight ([2]; 0.4 mg/kg, single animals): 98.2 and 91.1 and 96.6 and 90.7 and 100.0 (4×) and 99.5 and 99.6 | Body weight at sacrifice relative to maximum weight ([2]; 4 mg/kg, mean): 95.3 | Body weight at sacrifice relative to maximum weight ([2]; 4 mg/kg, single animals): 100.0 and 90.8 and 86.2 and 95.7 and 96.8 and 95.5 and 98.2 and 98.4 and 98.0 and 93.3 | PC-3 cell proliferation [3]: dose-dependent inhibition | absence of lesion following treatment [4]: three showed complete absence of lesion | fertility of offspring from dosed females [5]: no abnormalities noted
